According to the OligoGym collection:
These antisense oligonucleotides have a phosphorothioate backbone; sugars and methylation of C are not fully specified.

target: NCOA2; conditions: ASO
Also: test concentration or dose not given here.

Sequence	remaining target (mRNA or protein) (fraction of control)
AAAACTGACTGGGTGGGA	≥ 1
AACCACCAAACCTGCCCA	0.42
AAGCCAACGATGACCCTA	0.2
ACTCATCTTGAACACATA	≥ 1
AGAACTGGTCTTTCCTTC	0.92
AGGGTTGCTCATAGTTGC	0.61
ATCGGCTCGGGTCGGTCA	0.38
ATTCTCTTTCTTCTTGGG	0.71
CAGCAATATTTCCGTGTT	0.88
CATCCCACTCATCTTGAA	≥ 1
CATTTACTATAGACTTTG	0.79
CCAACATGCAAGATGCTA	0.83
CCAAGTTGGTCAGGACAT	≥ 1
CCCTAAATTTCCTTGGTT	0.82
CTATTAATTTTGTGTTAC	≥ 1
CTCTGTGAAATTCGCAGT	≥ 1
CTGCGCATGGAACTTCTG	0.45
CTGGCTTCAGCAGTGTCA	0.72
CTGTCAACATTTACTTGG	≥ 1
GAAGCATATGTAAAGATA	≥ 1

Sequence	remaining target (mRNA or protein) (fraction of control)
GACGCCACCCTGGGAACC	0.74
GAGAGACAGCGAAGCACT	0.29
GCAAGCTACCTGTGGAGT	0.5
GCTGGGTTGGCCTGAGAC	≥ 1
GCTGTGCTTGGAGGCGAT	0.43
GGACATAGCAAGTCATCT	0.62
GGATTTCCCTCTGTCTCT	0.32
GGCCCCAGCGCATCCTTG	0.45
GGGAAAAGCTGTGGTAAT	0.79
GTAGGCACGGAGGTCACT	≥ 1
GTTATACCTTAGATACTG	0.84
TCAGCAGTGTCAGCAATA	≥ 1
TCTGCCCTTTGCTGTCAT	0.59
TGCACATTTGTCAGGTTT	0.18
TGCACTTCATCTATGTTG	0.5
TGCCTTCCAGGTTCACTA	0.99
TGCTGTGGGAAAACGGGC	0.43
TTCATGGCACTGGTGGTA	0.85
TTCTGAATCAGGTAAAGG	≥ 1
TTTCTCCCATCCCACTCA	0.87

target: NCOA1; conditions: ASO

Sequence	remaining target (mRNA or protein) (fraction of control)
CTGAGGATTGATTCCAGT	0.67
CTTCCTCACTAAATCTTC	≥ 1
CTTTAAAAGTGGTTATTC	≥ 1
GAGCTAATACACTGGTCT	0.55
GCGTTGCTTGTTGTGGTG	0.43
GGATTGACCGAGGGATTT	0.52
GGTCTGAGCTCTGCTGGC	0.24
GGTTATTCAGTCAGTAGC	0.57
GTCCCCGCCTACCAGATT	0.56
GTGGTTATTCAGTCAGTA	0.56
GTTCATTCCTGGCATCTG	0.66
TAAAAGTGGTTATTCAGT	0.79
TCATGATGATGAAGCCGA	0.58
TCATTAATTCCTCCTGAT	0.48
TCCATCTGTTCTTTCTTT	0.84
TCCCCGTTTGAACTGGTA	0.63
TCCGTGCTTGATGCCAGT	0.34
TCCTTTAAAAGTGGTTAT	0.93
TGCTTGGTCATAAAGGAT	0.74
TGGTTATTCAGTCAGTAG	0.71
TTAAAAGTGGTTATTCAG	0.79
TTAGCAGGGTCGGATGAA	0.4
TTCCTTTAAAAGTGGTTA	0.71
TTTAAAAGTGGTTATTCA	0.74

target: MAP4K4; conditions: ASO

Sequence	remaining target (mRNA or protein) (fraction of control)
AAACAAAATGGGACCCCTTA	0.56
AAGTTTCACCTCTGCATTCT	0.26
AATAAAACCAACGGCATGTT	0.81
ACTTCCTCCTCTTCTTCCTC	0.41
AGACCCGGGCTGGGATCCTG	0.92
AGAGGGCCGCTGCATGTAAT	0.36
AGAGTAGACTCACCAGGCAC	0.75
AGGTGGCATCTGGGTTCTCA	0.46
ATGTAAGCGATCCAGTCTTC	0.67
ATGTCGACCCTTATAGACTT	0.39
CACACAGAATCTCAGAGTTA	0.61
CACCACAGATGTCACTGTTG	0.45
CACTGCATTTTCCAGGCGCT	0.49
CAGTTACAAGGAATTCCAAG	0.93
CCATCCAAGTGACCAGTTTC	0.29
CCGCTTCTGTCTCTCTGCCA	0.25
CCTCATCTTCATAGCACACC	0.82
CCTCTCCTCTTCTTCTTTGC	0.64
CCTGCCTGGCTATTCTGCTG	0.43
CCTGCTGCAGTCTCAGGAAA	0.37

Sequence	remaining target (mRNA or protein) (fraction of control)
CCTTGATATCCCGGTGAATC	0.23
CTCTGCAGGGCGGGATGCAC	≥ 1
CTTCCTCTTCATCCTCAGTG	0.34
GAACCATCTGCACATGATTT	0.48
GACTGAGTCTGGCGGACGAT	0.84
GACTTGGATGATGATCTCAC	0.86
GCATGGAATCCAGCACAGGA	0.69
GCCGTACATCTTCCACTGCT	0.45
GCCTTGATTTATTTTGGAGT	0.92
GCTCCTTTCCTGCTGCGGTG	0.37
GCTCTCATTGGATGCATGTC	0.39
GGACTCGTCAGCCCCTTCCT	0.16
GGATCATTGTGAAGTATTTT	0.84
GGTACGATCTATATGATCCT	0.8
GTACGTCCATTTGTTGAAAT	0.51
TAAACCTGACTGCTGCCACC	0.53
TCCAAATGACTTAAAGGCCA	0.68
TGGACAATCATGGTTTTCAC	0.71
TGTAGGCATCTCTCCCCACT	0.42
TTTGATTCTTTCATATTTTA	0.82

target: RIPK2; conditions: ASO

Sequence	remaining target (mRNA or protein) (fraction of control)
AAAACAGTCACTTACATGCT	0.52
AAATAACAGTCTTGAGCTTT	0.73
AAGCCTGGGATTTTAGGGCA	0.15
AGATGGCCTCCCCGTTCATG	0.51
AGGCTTCTGTCATTTGGTTC	0.3
ATAAAGCTTTAATACTCACG	0.93
ATACTTCATAAAATCAAATT	≥ 1
ATCAGGCTGTTGACTTTATT	0.53
ATGCAGCCCTTTGAGAACCA	0.18
ATGGCCTCCCCGTTCATGGT	0.51
ATGTAACTAAATCTAGCTTT	0.72
ATTGCATCTTAGACAAGTAA	≥ 1
ATTTTCATGGAGCTGAGAGG	0.68
CACCAAGGGCAATTTCATGC	0.15
CATGGTCCCGGGCGCTCAGG	≥ 1
CCACAAGTATTTCCGGGTAA	0.36
CCAGGCTGCAGACGTTCTGA	0.3

Sequence	remaining target (mRNA or protein) (fraction of control)
CCCGTTCATGGTCCCGGGCG	0.6
CCTCCCCGTTCATGGTCCCG	0.24
CGAACCAGAGCTGACTTCTT	0.28
CGTTCATGGTCCCGGGCGCT	0.76
GAGCAGCGGAGTGTGGATGT	0.3
GATAATTGTCCCTCCTTCTG	≥ 1
GATACGCCCCTGCACGAGCG	0.65
GCAGATGGCCTCCCCGTTCA	0.84
GCAGGTCGGCGAGTTTGTGG	≥ 1
GGCCTCCCCGTTCATGGTCC	0.45
GTCAGTAGTGTCTAGTAATT	0.52
GTGCTCGGTGAGGTATATCA	0.18
TATCCTTTTATGAAACACAT	0.69
TCCCCGTTCATGGTCCCGGG	0.24
TCTATTAAACATTTTAAGAA	≥ 1
TCTTTCATGATCAAGTCCCT	0.42
